Reference: patent US20080247979A1, “Use of a Hydrophobic Zeolite, that Contains and Gives a Slow Release of an Active Element, for Treatment of Skin” (priority 2005, published 2008)

Assay: free release of ethanol from loaded hydrophobic zeolite over time, with parallel evaporation of non-adsorbed ethanol
Format: physicochemical
Details: one gram ethanol not adsorbed to any hydrophobic zeolite, reduced to 0,5 grams
Protocol: After 12 hours, at 29 degrees C., hydrophobic zeolite Y powder has dropped approximately 70% of its ethanol.
Hydrophobic zeolite Y was loaded with 16 weight per cent ethanol and its free release of ethanol over the time at a surrounding temperature off 29 degrees C. was studied. The result appears in FIG. 1. Which also appears from FIG. 1, the hydrophobic zeolite had, after approximately 5 hours, given the half amount of its ethanol, and was still active.
In a parallel experiment evaporation of 95% ethanol, not adsorbed to any hydrophobic zeolite, was measured. One gram of this ethanol had after 8 minutes been reduced through evaporation to 0,5 grams, i e to half the amount. This is a drastic difference compared with ethanol which is adsorbed to hydrophobic zeolite. If the experiment had been executed with 99.5% ethanol instead of 95% it would presumably have been even smaller. Through the hydrophobic zeolite composition the skin is exposed to ethanol vapour during 50 times's longer time as in a normal sponging.
The mentioned hydrophobic zeolite loaded with ethanol gives a vapour that is near 100% ethanol in composition. The ethanol vapour can aggressively attack skin bacteria's in their hydrophobic environment during relatively long time.

time until reduced through evaporation to half the amount: 8 min
SMILES: CCO [95% ethanol, ethanol]
